Assay results: patent US20110230478A1 (Bayer ScienceCrop AG, priority 2008, published 2011)

assay: logP by HPLC on reversed-phase columns (C 18), EEC Directive 79/831 Annex V.A8; format: physicochemical; details: method marker [b]; footnote not given; compound 68 value matches logP (pH 2.3)

logP | SMILES
1.8[b] | COCC(C)Nc1nc(Nc2ccc(F)cc2)ncc1Cl (stereo not drawn) [Example 69]
2.82[b] | COCC(C)Nc1nc(Nc2cccc(Cl)c2)ncc1Br (stereo not drawn) [Example 71]
2.37[b] | COCC(C)Nc1nc(Nc2cccc(S(=O)(=O)N(C)C)c2)ncc1Br (stereo not drawn) [Example 72]
2.16[b] | COCC(C)Nc1nc(Nc2ccc(F)cc2F)ncc1Br (stereo not drawn) [Example 73]
4.08[b] | COCC(C)Nc1nc(Nc2ccc3c(c2)OC(F)(F)C(F)(F)O3)ncc1Br (stereo not drawn) [Example 75]
2.23[b] | COCC(C)Nc1nc(Nc2ccc(Cl)c(S(C)(=O)=O)c2)ncc1Br (stereo not drawn) [Example 76]
2.3[b] | COCC(C)Nc1nc(Nc2cccc(SC)c2)ncc1Br (stereo not drawn) [Example 77]
2.57[b] | CCC(=O)c1ccc(Nc2ncc(Br)c(NC(C)COC)n2)cc1 (stereo not drawn) [Example 78]
1.55[b] | COCC(C)Nc1nc(Nc2ccc3c(c2)CCN3C(C)=O)ncc1Br (stereo not drawn) [Example 79]
1.11[b] | COCC(C)Nc1nc(Nc2cccc(NC(C)=O)c2)ncc1Br (stereo not drawn) [Example 80]
2.02[b] | COCC(C)Nc1nc(Nc2ccc(F)cc2F)ncc1Cl (stereo not drawn) [Example 81]
3.22[b] | COCC(C)Nc1nc(Nc2ccc(C(F)(F)F)cc2)ncc1Cl (stereo not drawn) [Example 82]
2.11[b] | COCC(C)Nc1nc(Nc2cccc(C#N)c2)ncc1Cl (stereo not drawn) [Example 83]
1.46[b] | COCC(C)Nc1nc(Nc2ccc(OC)c(OC)c2)ncc1Cl (stereo not drawn) [Example 84]
1.78[b] | COCC(C)Nc1nc(Nc2cccc(OC)c2)ncc1Cl (stereo not drawn) [Example 85]
1.56[b] | COCC(C)Nc1nc(Nc2ccc(OC)cc2)ncc1Cl (stereo not drawn) [Example 86]
3.14[b] | COCC(C)Nc1nc(Nc2cccc(OC(F)(F)F)c2)ncc1Cl (stereo not drawn) [Example 87]
3.81[b] | COCC(C)Nc1nc(Nc2ccc(SC(F)(F)F)cc2)ncc1Cl (stereo not drawn) [Example 88]
2.77[b] | COCC(C)Nc1nc(Nc2ccc(SC)c(Cl)c2)ncc1Cl (stereo not drawn) [Example 89]
1.87[b] | COCC(C)Nc1nc(Nc2ccc(-c3cscn3)cc2)ncc1Cl (stereo not drawn) [Example 90]
1.71[b] | COCC(C)Nc1nc(Nc2ccc(CC(=O)OC)cc2)ncc1Cl (stereo not drawn) [Example 91]
3.85[b] | COCC(C)Nc1nc(Nc2ccc3c(c2)OC(F)(F)C(F)(F)O3)ncc1Cl (stereo not drawn) [Example 92]
1.75[b] | COCC(C)Nc1nc(Nc2cccc(CC(=O)OC)c2)ncc1Cl (stereo not drawn) [Example 93]
4.08[b] | COCC(C)Nc1nc(Nc2cc(Cl)cc(Cl)c2)ncc1Cl (stereo not drawn) [Example 94]
2.95[b] | COCC(C)Nc1nc(Nc2ccc(C(=O)OC)c(Cl)c2)ncc1Cl (stereo not drawn) [Example 95]

logP | SMILES
2.04[b] | CCOc1cccc(Nc2ncc(Cl)c(NC(C)COC)n2)c1 (stereo not drawn) [Example 96]
1.56[b] | COCC(C)Nc1nc(Nc2ccc3c(c2)OCO3)ncc1Cl (stereo not drawn) [Example 97]
3.99[b] | COCC(C)Nc1nc(Nc2ccc(OC(F)(F)F)c(Cl)c2)ncc1Cl (stereo not drawn) [Example 98]
1.48[b] | COCC(C)Nc1nc(Nc2ccc(N(C)C(C)=O)cc2)ncc1Cl (stereo not drawn) [Example 99]
2.09[b] | COCC(C)Nc1nc(Nc2ccc(Cl)c(S(C)(=O)=O)c2)ncc1Cl (stereo not drawn) [Example 100]
2.13[b] | COCC(C)Nc1nc(Nc2cccc(SC)c2)ncc1Cl (stereo not drawn) [Example 101]
2.09[b] | COCC(C)Nc1nc(Nc2ccc(C(=O)CC#N)cc2)ncc1Cl (stereo not drawn) [Example 102]
1.97[b] | COCC(C)Nc1nc(Nc2ccc3c(c2)CCC3=O)ncc1Cl (stereo not drawn) [Example 103]
2.36[b] | CCC(=O)c1ccc(Nc2ncc(Cl)c(NC(C)COC)n2)cc1 (stereo not drawn) [Example 104]
1.75[b] | COCC(C)Nc1nc(Nc2ccc3sc(C)nc3c2)ncc1Cl (stereo not drawn) [Example 105]
2.11[b] | COCC(C)Nc1nc(Nc2ccc3oc(=O)sc3c2)ncc1Cl (stereo not drawn) [Example 106]
1.48[b] | COCC(C)Nc1nc(Nc2ccc3c(c2)CCN3C(C)=O)ncc1Cl (stereo not drawn) [Example 107]
2.26[b] | COCC(C)Nc1nc(Nc2cccc(C#N)c2)ncc1Br (stereo not drawn) [Example 108]
1.63[b] | COCC(C)Nc1nc(Nc2ccc(OC)cc2)ncc1Br (stereo not drawn) [Example 110]
2.99[b] | COCC(C)Nc1nc(Nc2ccc(SC)c(Cl)c2)ncc1Br (stereo not drawn) [Example 111]
1.99[b] | COCC(C)Nc1nc(Nc2ccc(-c3cscn3)cc2)ncc1Br (stereo not drawn) [Example 112]
1.87[b] | COCC(C)Nc1nc(Nc2cccc(CC(=O)OC)c2)ncc1Br (stereo not drawn) [Example 113]
4.32[b] | COCC(C)Nc1nc(Nc2cc(Cl)cc(Cl)c2)ncc1Br (stereo not drawn) [Example 114]
3.14[b] | COCC(C)Nc1nc(Nc2ccc(C(=O)OC)c(Cl)c2)ncc1Br (stereo not drawn) [Example 115]
2.18[b] | CCOc1cccc(Nc2ncc(Br)c(NC(C)COC)n2)c1 (stereo not drawn) [Example 116]
1.64[b] | COCC(C)Nc1nc(Nc2ccc3c(c2)OCO3)ncc1Br (stereo not drawn) [Example 117]
4.23[b] | COCC(C)Nc1nc(Nc2ccc(OC(F)(F)F)c(Cl)c2)ncc1Br (stereo not drawn) [Example 118]
1.56[b] | COCC(C)Nc1nc(Nc2ccc(N(C)C(C)=O)cc2)ncc1Br (stereo not drawn) [Example 119]
2.16[b] | COCC(C)Nc1nc(Nc2cccc(S(=O)(=O)N3CCOCC3)c2)ncc1Br (stereo not drawn) [Example 120]

same assay, conditions: reversed-phase HPLC column (C 18), pH 2.3, method marker [b]; footnote not given; compound 68 value matches logP (pH 2.3); read-out: logP

chromatographic logP | SMILES
2.68 | CCCNc1nc(Nc2ccccc2)ncc1C#N [Example 68, 2-(Phenylamino)-4-(propylamino)pyrimidine-5-carbonitrile]

same assay, conditions: reversed-phase HPLC column (C 18), pH 2.3, pH 2.3, 0.1% aqueous phosphoric acid and acetonitrile; read-out: logP [a]

chromatographic logP | SMILES
2.68 | CCCNc1nc(Nc2ccccc2)ncc1C#N [Example 68, 2-(Phenylamino)-4-(propylamino)pyrimidine-5-carbonitrile]

same assay, conditions: values marked [a]; pH 2.3

logP | SMILES
2.68[a]; | CSCC(C)(C)Nc1nc(Nc2ccccc2)ncc1Cl [Example 174]
3.48[a]; | CSCC(C)(C)Nc1nc(Nc2cccc(SC)c2)ncc1Cl [Example 175]
2.88[a] | CCC(C)N(C)c1nc(Nc2cccc(C(C)=O)c2)ncc1Cl (stereo not drawn) [Example 179]

same assay, conditions: values marked [b]; footnote not given

logP | SMILES
2.23[b] | COCC(C)Nc1nc(Nc2ccc(C(=O)CC#N)cc2)ncc1Br (stereo not drawn) [Example 121]
1.87[b] | COCC(C)Nc1nc(Nc2ccc3sc(C)nc3c2)ncc1Br (stereo not drawn) [Example 122]
1.9[b] | COCC(C)Nc1nc(Nc2cccc(NC(=O)C(C)(C)C)c2)ncc1Cl (stereo not drawn) [Example 147]
1.51[b] | COCC(C)Nc1nc(Nc2ccc(C(=O)N(C)C)cc2)ncc1Cl (stereo not drawn) [Example 148]
2.06[b] | COCC(C)Nc1nc(Nc2ccc(SC)cc2)ncc1Cl (stereo not drawn) [Example 149]
2.77[b] | COCC(C)Nc1nc(Nc2cccc(S(=O)(=O)N3CCCCC3)c2)ncc1Cl (stereo not drawn) [Example 150]
2.26[b] | COCC(C)Nc1nc(Nc2ccc(CC(=O)C(C)(C)C)cc2)ncc1Cl (stereo not drawn) [Example 151]
1.59[b] | COCC(C)Nc1nc(Nc2cccc(NC(=O)OC)c2)ncc1Cl (stereo not drawn) [Example 153]
2.33[b] | COCC(C)Nc1nc(Nc2ccc(C)c(SC)c2)ncc1Cl (stereo not drawn) [Example 154]
1.47[b] | COCC(C)Nc1nc(Nc2cccc(C(=O)N(C)C)c2)ncc1Cl (stereo not drawn) [Example 155]
1.68[b] | COCC(C)Nc1nc(Nc2cccc(NC(=O)C(C)C)c2)ncc1Cl (stereo not drawn) [Example 156]
1.99[b] | COCC(C)Nc1nc(Nc2cccc(C(=O)NC(C)(C)C)c2)ncc1Cl (stereo not drawn) [Example 157]
2.61[b] | COCC(C)Nc1nc(Nc2ccc(OC(F)(F)C(F)F)cc2)ncc1Cl (stereo not drawn) [Example 158]
1.68[b] | COCC(C)Nc1nc(Nc2ccc(O)c(C(C)=O)c2)ncc1Cl (stereo not drawn) [Example 159]
1.34[b] | COCC(C)Nc1nc(Nc2ccc(O)c(F)c2)ncc1Cl (stereo not drawn) [Example 160]
2.33[b] | COCC(C)Nc1nc(Nc2ccc(N(C(C)=O)C3CCCCC3)cc2)ncc1Cl (stereo not drawn) [Example 161]
1.78[b] | COCC(C)Nc1nc(Nc2cccc(NC(=O)C3(C)CC3)c2)ncc1Cl (stereo not drawn) [Example 162]
1.87[b] | COCC(C)Nc1nc(Nc2ccc(N(C)C(=O)C(C)(C)C)cc2)ncc1Cl (stereo not drawn) [Example 163]
2.55[b] | COCC(C)Nc1nc(Nc2ccc(N(C(=O)C(F)(F)F)C3CC3)cc2)ncc1Cl (stereo not drawn) [Example 164]

logP | SMILES
2.23[b] | COCC(C)Nc1nc(Nc2cccc(NC(=O)Oc3ccccc3)c2)ncc1Cl (stereo not drawn) [Example 165]
1.83[b] | COCC(C)Nc1nc(Nc2cccc(NC(=O)C(C)(C)CF)c2)ncc1Cl (stereo not drawn) [Example 166]
1.37[b] | COCC(C)Nc1nc(Nc2ccc(C)c(NC(C)=O)c2)ncc1Cl (stereo not drawn) [Example 167]
1.68[b] | COCC(C)Nc1nc(Nc2cccc(NC(=O)c3ccco3)c2)ncc1Cl (stereo not drawn) [Example 168]
1.59[b] | COCC(C)Nc1nc(Nc2ccc(NC(=O)C(C)C)cc2)ncc1Cl (stereo not drawn) [Example 169]
1.39[b] | COCC(C)Nc1nc(Nc2ccc(O)c(C)c2)ncc1Cl (stereo not drawn) [Example 171]
2.8[b] | COCC(C)Nc1nc(Nc2ccc(SC(F)F)cc2)ncc1Cl (stereo not drawn) [Example 172]
2.33[b] | COCC(Nc1nc(Nc2ccccc2)ncc1Cl)C(C)C (stereo not drawn) [Example 176]
2.26[b] | FC(F)(F)OCCNc1nc(Nc2ccccc2)ncc1Cl [Example 177]
1.86[b] | CN(C)c1nc(Nc2ccccc2)ncc1Br [Example 178]
2.21[b] | CC(C)Nc1nc(Nc2cccc(C#N)c2)ncc1Cl [Example 180]
1.44[b] | COc1cc(Nc2ncc(Cl)c(NC(C)C)n2)ccc1NC(C)=O [Example 181]
1.86[b] | COc1cccc(Nc2ncc(Cl)c(NC(C)C)n2)c1 [Example 182]
1.63[b] | COc1ccc(Nc2ncc(Cl)c(NC(C)C)n2)cc1 [Example 183]
2.46[b] | CC(C)Nc1nc(Nc2ccc(C#N)cc2)ncc1Cl [Example 184]
3.26[b] | CC(C)Nc1nc(Nc2cccc(OC(F)(F)F)c2)ncc1Cl [Example 185]
1.86[b] | CC(C)Nc1nc(Nc2ccc(S(C)(=O)=O)cc2)ncc1Cl [Example 186]
2.91[b] | CSc1ccc(Nc2ncc(Cl)c(NC(C)C)n2)cc1Cl [Example 187]

same assay, conditions: values marked [c]; footnote not given

logP | SMILES
4.18[c] | CSCC(C)(C)Nc1nc(Nc2ccccc2)ncc1Cl [Example 174]
4.59[c] | CSCC(C)(C)Nc1nc(Nc2cccc(SC)c2)ncc1Cl [Example 175]
